The experiment concerns the target T1, recombinant human NK3 receptor (Homo sapiens, UniProt P29371).
T1 construct: expressed in transfected cells; host or cells: HEK293 cells (transient expression), membranes
T1 sequence (P29371 1-465): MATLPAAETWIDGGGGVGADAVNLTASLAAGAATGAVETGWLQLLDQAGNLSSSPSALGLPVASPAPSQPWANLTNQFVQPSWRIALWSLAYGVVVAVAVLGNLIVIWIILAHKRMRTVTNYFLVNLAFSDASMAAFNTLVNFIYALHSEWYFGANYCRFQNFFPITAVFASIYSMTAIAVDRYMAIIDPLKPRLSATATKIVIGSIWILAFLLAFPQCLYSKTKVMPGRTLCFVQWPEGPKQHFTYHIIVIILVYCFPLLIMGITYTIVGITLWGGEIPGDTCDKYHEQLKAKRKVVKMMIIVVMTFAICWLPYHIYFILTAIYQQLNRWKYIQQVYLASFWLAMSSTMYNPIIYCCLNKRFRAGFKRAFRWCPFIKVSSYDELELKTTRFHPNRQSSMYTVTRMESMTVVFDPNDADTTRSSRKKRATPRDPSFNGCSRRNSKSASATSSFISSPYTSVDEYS
Description: [3H]SR142801 competition binding assay. As to conditions: [3H]SR142801, membranes from HEK293 cells transiently expressing recombinant human NK3 receptor; read-out: hNK3 Ki. A digest of the protocol:
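Membranes from HEK293 cells transiently expressing human NK3 were incubated 75 min at RT with [3H]SR142801 at its KD and inhibitor (0.0003-10 μM) in Tris-HCl pH 7.4/MnCl2/phosphoramidon/BSA. Nonspecific binding used 10 μM SB222200. Ki from Hill-fitted IC50 via Cheng-Prusoff, duplicate determinations.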

Molecules are shown by their SMILES.

With `CN(Cc1cccc(F)c1)C(=O)C(C)(CCN1CCCN(S(C)(=O)=O)CC1)c1ccc(Cl)c(Cl)c1` (stereo not drawn) [Example 100, 2-(3,4-Dichloro-phenyl)-N-(3-fluoro-benzyl)-4-(4-methanesulfonyl-[1,4]diazepan-1-yl)-2,N-dimethyl-butyramide], the inhibition constant Ki (in general, the equilibrium dissociation constant of an inhibitor or competing ligand from its target) was found to be 96.5 nM.
To `CN(Cc1cccc(C(F)(F)F)c1)C(=O)C(C)(CCN1CCCN(S(C)(=O)=O)CC1)c1ccc(Cl)c(Cl)c1` (stereo not drawn) [Example 101, 2-(3,4-Dichloro-phenyl)-4-(4-methanesulfonyl-[1,4]diazepan-1-yl)-2,N-dimethyl-N-(3-trifluoromethyl-benzyl)-butyramide] belongs 18.4 nM; to `CC(CCN1CCCN(S(C)(=O)=O)CC1)(C(=O)NCc1cccc(OC(F)(F)F)c1)c1ccc(Cl)c(Cl)c1` (stereo not drawn) [Example 102, 2-(3,4-Dichloro-phenyl)-4-(4-methanesulfonyl-[1,4]diazepan-1-yl)-2-methyl-N-(3-trifluoromethoxy-benzyl)-butyramide], 123 nM.
As for `CN(Cc1cccc(Cl)c1)C(=O)C(C)(CCN1CCCN(S(C)(=O)=O)CC1)c1ccc(Cl)c(Cl)c1` (stereo not drawn) [Example 103, N-(3-Chloro-benzyl)-2-(3,4-dichloro-phenyl)-4-(4-methanesulfonyl-[1,4]diazepan-1-yl)-2,N-dimethyl-butyramide], the figure is 41.8 nM.
To `COc1ccc(CN(C)C(=O)C(C)(CCN2CCCN(S(C)(=O)=O)CC2)c2ccc(Cl)c(Cl)c2)cc1F` (stereo not drawn) [Example 104, 2-(3,4-Dichloro-phenyl)-N-(3-fluoro-4-methoxy-benzyl)-4-(4-methanesulfonyl-[1,4]diazepan-1-yl)-2,N-dimethyl-butyramide] belongs 60.2 nM.
Take `COc1ccc(C(NC(=O)C(C)(CCN2CCCN(S(C)(=O)=O)CC2)c2ccc(Cl)c(Cl)c2)C2CC2)cc1` (stereo not drawn) [Example 105, N-[Cyclopropyl-(4-methoxy-phenyl)-methyl]-2-(3,4-dichloro-phenyl)-4-(4-methanesulfonyl-[1,4]diazepan-1-yl)-2-methyl-butyramide]: the Ki came to 134 nM.
To `CN(Cc1ccc(F)c(C(F)(F)F)c1)C(=O)C(C)(CCN1CCCN(S(C)(=O)=O)CC1)c1ccc(Cl)c(Cl)c1` (stereo not drawn) [Example 106, 2-(3,4-Dichloro-phenyl)-N-(4-fluoro-3-trifluoromethyl-benzyl)-4-(4-methanesulfonyl-[1,4]diazepan-1-yl)-2,N-dimethyl-butyramide] belongs 9.2 nM; to `CC(CCN1CCCN(S(C)(=O)=O)CC1)(C(=O)NCc1cc(C(F)(F)F)cc(C(F)(F)F)c1)c1ccc(Cl)c(Cl)c1` (stereo not drawn) [Example 107, N-(3,5-Bis-trifluoromethyl-benzyl)-2-(3,4-dichloro-phenyl)-4-(4-methanesulfonyl-[1,4]diazepan-1-yl)-2-methyl-butyramide], 209 nM.
`COc1cc(CN(C)C(=O)C(C)(CCN2CCCN(S(C)(=O)=O)CC2)c2ccc(Cl)c(Cl)c2)ccc1OC(F)F` (stereo not drawn) [Example 108, 2-(3,4-Dichloro-phenyl)-N-(4-difluoromethoxy-3-methoxy-benzyl)-4-(4-methanesulfonyl-[1,4]diazepan-1-yl)-2,N-dimethyl-butyramide]: the inhibitory constant (Ki) was determined as 89.5 nM.
To `Cc1ccc(CN(C)C(=O)C(C)(CCN2CCCN(S(C)(=O)=O)CC2)c2ccc(Cl)c(Cl)c2)cc1` (stereo not drawn) [Example 109, 2-(3,4-Dichloro-phenyl)-4-(4-methanesulfonyl-[1,4]diazepan-1-yl)-2,N-dimethyl-N-(4-methyl-benzyl)-butyramide] belongs 33.5 nM; to `CN(C)c1ccc(CNC(=O)C(C)(CCN2CCCN(S(C)(=O)=O)CC2)c2ccc(Cl)c(Cl)c2)cc1` (stereo not drawn) [Example 110, 2-(3,4-Dichloro-phenyl)-N-(4-dimethylamino-benzyl)-4-(4-methanesulfonyl-[1,4]diazepan-1-yl)-2-methyl-butyramide], 291 nM; to `CN(Cc1ccc(Cl)c(C(F)(F)F)c1)C(=O)C(C)(CCN1CCCN(S(C)(=O)=O)CC1)c1ccc(Cl)c(Cl)c1` (stereo not drawn) [Example 111, N-(4-Chloro-3-trifluoromethyl-benzyl)-2-(3,4-dichloro-phenyl)-4-(4-methanesulfonyl-[1,4]diazepan-1-yl)-2,N-dimethyl-butyramide], 6.7 nM.
With `CN(Cc1ccc(C(F)(F)F)c(F)c1)C(=O)C(C)(CCN1CCCN(S(C)(=O)=O)CC1)c1ccc(Cl)c(Cl)c1` (stereo not drawn) [Example 112, 2-(3,4-Dichloro-phenyl)-N-(3-fluoro-4-trifluoromethyl-benzyl)-4-(4-methanesulfonyl-[1,4]diazepan-1-yl)-2,N-dimethyl-butyramide], the inhibitory constant (Ki) was 16.2 nM.
As for `CN(Cc1ccc(Cl)c(Cl)c1)C(=O)C(C)(CCN1CCCN(S(C)(=O)=O)CC1)c1ccc(Cl)c(Cl)c1` (stereo not drawn) [Example 113, N-(3,4-Dichloro-benzyl)-2-(3,4-dichloro-phenyl)-4-(4-methanesulfonyl-[1,4]diazepan-1-yl)-2,N-dimethyl-butyramide], the figure is 10.1 nM.
As for `CC(CCN1CCCN(S(C)(=O)=O)CC1)(C(=O)NCc1ccc(Cl)c(Cl)c1)c1ccc(Cl)c(Cl)c1` (stereo not drawn) [Example 114, N-(3,4-Dichloro-benzyl)-2-(3,4-dichloro-phenyl)-4-(4-methanesulfonyl-[1,4]diazepan-1-yl)-2-methyl-butyramide], the figure is 39.9 nM; as for `CC(CCN1CCCN(S(C)(=O)=O)CC1)(C(=O)NCc1cccc(OC(F)F)c1)c1ccc(Cl)c(Cl)c1` (stereo not drawn) [Example 115, 2-(3,4-Dichloro-phenyl)-N-(3-difluoromethoxy-benzyl)-4-(4-methanesulfonyl-[1,4]diazepan-1-yl)-2-methyl-butyramide], 183 nM; as for `CC(CCN1CCCN(S(C)(=O)=O)CC1)(C(=O)NCc1cc(F)ccc1C(F)(F)F)c1ccc(Cl)c(Cl)c1` (stereo not drawn) [Example 116, 2-(3,4-Dichloro-phenyl)-N-(5-fluoro-2-trifluoromethyl-benzyl)-4-(4-methanesulfonyl-[1,4]diazepan-1-yl)-2-methyl-butyramide], 575 nM.
To `CC(CCN1CCCN(S(C)(=O)=O)CC1)(C(=O)NCc1ccc(C(F)(F)F)cc1)c1ccc(Cl)c(Cl)c1` (stereo not drawn) [Example 117, 2-(3,4-Dichloro-phenyl)-4-(4-methanesulfonyl-[1,4]diazepan-1-yl)-2-methyl-N-(4-trifluoromethyl-benzyl)-butyramide] belongs 49.6 nM.
For `CC(CCN1CCCN(S(C)(=O)=O)CC1)(C(=O)NCc1cc(C(F)(F)F)ccc1F)c1ccc(Cl)c(Cl)c1` (stereo not drawn) [Example 118, 2-(3,4-Dichloro-phenyl)-N-(2-fluoro-5-trifluoromethyl-benzyl)-4-(4-methanesulfonyl-[1,4]diazepan-1-yl)-2-methyl-butyramide], the Ki stood at 136 nM.
For the compound `CC(NC(=O)C(C)(CCN1CCCN(S(C)(=O)=O)CC1)c1ccc(Cl)c(Cl)c1)c1ccc(Cl)cc1` (stereo not drawn) [Example 119, N-[1-(4-Chloro-phenyl)-ethyl]-2-(3,4-dichloro-phenyl)-4-(4-methanesulfonyl-[1,4]diazepan-1-yl)-2-methyl-butyramide], the Ki came to 121 nM.
With `COc1cccc(CN(C)C(=O)C(C)(CCN2CCCN(S(C)(=O)=O)CC2)c2ccc(Cl)c(Cl)c2)c1` (stereo not drawn) [Example 120, 2-(3,4-Dichloro-phenyl)-4-(4-methanesulfonyl-[1,4]diazepan-1-yl)-N-(3-methoxy-benzyl)-2,N-dimethyl-butyramide], the Ki was determined as 108 nM.
In the case of `CN(Cc1ccccc1Cl)C(=O)C(C)(CCN1CCCN(S(C)(=O)=O)CC1)c1ccc(Cl)c(Cl)c1` (stereo not drawn) [Example 121, N-(2-Chloro-benzyl)-2-(3,4-dichloro-phenyl)-4-(4-methanesulfonyl-[1,4]diazepan-1-yl)-2,N-dimethyl-butyramide], the Ki amounted to 31.2 nM.
Turning to `CC(NC(=O)C(C)(CCN1CCCN(S(C)(=O)=O)CC1)c1ccc(Cl)c(Cl)c1)c1ccc(Cl)c(Cl)c1` (stereo not drawn) [Example 122, 2-(3,4-Dichloro-phenyl)-N-[1-(3,4-dichloro-phenyl)-ethyl]-4-(4-methanesulfonyl-[1,4]diazepan-1-yl)-2-methyl-butyramide], the Ki amounted to 43.4 nM.
As to `CN(Cc1ccc(-c2ccncc2)cc1)C(=O)C(C)(CCN1CCCN(S(C)(=O)=O)CC1)c1ccc(Cl)c(Cl)c1` (stereo not drawn) [Example 123, 2-(3,4-Dichloro-phenyl)-4-(4-methanesulfonyl-[1,4]diazepan-1-yl)-2,N-dimethyl-N-(4-pyridin-4-yl-benzyl)-butyramide], the Ki amounted to 93.4 nM.
`CC(CCN1CCCN(S(C)(=O)=O)CC1)(C(=O)NCc1ccc(C#N)cc1)c1ccc(Cl)c(Cl)c1` (stereo not drawn) [Example 124, N-(4-Cyano-benzyl)-2-(3,4-dichloro-phenyl)-4-(4-methanesulfonyl-[1,4]diazepan-1-yl)-2-methyl-butyramide]: the Ki is 107 nM.
Turning to `CN(Cc1ccc(C(F)(F)F)nc1)C(=O)C(C)(CCN1CCCN(S(C)(=O)=O)CC1)c1ccc(Cl)c(Cl)c1` (stereo not drawn) [Example 125, 2-(3,4-Dichloro-phenyl)-4-(4-methanesulfonyl-[1,4]diazepan-1-yl)-2,N-dimethyl-N-(6-trifluoromethyl-pyridin-3-ylmethyl)-butyramide], the Ki worked out at 275 nM.
To `CC(CCN1CCCN(S(C)(=O)=O)CC1)(C(=O)NCc1ccc(C(F)(F)F)nc1)c1ccc(Cl)c(Cl)c1` (stereo not drawn) [Example 126, 2-(3,4-Dichloro-phenyl)-4-(4-methanesulfonyl-[1,4]diazepan-1-yl)-2-methyl-N-(6-trifluoromethyl-pyridin-3-ylmethyl)-butyramide] belongs 949 nM.

Values taken from US7592345B2, “Piperazine and [1,4]diazepan derivatives as NK antagonists” (Hoffmann-La Roche Inc., priority 2007, dated 2009).
